{"source": "patent US8168221B2", "about": "“Composition 064” (AstraZeneca AB, priority 2007, dated 2012)", "key": {"[1]": {"assay": "Compound (I) forced degradation study, aqueous buffer solutions protected from light", "format": "physicochemical", "settings": "for Compound (I) formyl hydrazide, % w/w (24 hours) / Compound (I) hydrazide, % w/w (24 hours) / Compound (I), % w/w (24 hours) / Compound (I), % w/w (initial) / Compound (I) formyl hydrazide, % w/w (initial): protected from light; for Compound (I), % w/w (initial): 0.5 mg/mL", "description": "(§1) The Compound (I), Compound (I) formyl hydrazide, and total impurities contents were determined using High Performance Liquid Chromatography HPLC. 10 μL sample was injected into a mobile phase comprising water/acetonitrile/formic acid in the ratios 900:100:2 (Eluent A)/400:600:2 (Eluent B), as defined by the gradient program in Table 1 below. Separation of impurities was performed using a column 15 cm long×4.6 mm internal diameter packed with Waters Symmetry C8 stationary phase having 3.5 μm particle size. […] “ND” in Tables 2 and 3 refers to “not determined”"}, "[2]": {"assay": "Compound (I) forced degradation study, solutions exposed to light at room temperature", "format": "physicochemical", "description": "as §1"}}}
{"smiles": "COc1nc(C)cnc1NS(=O)(=O)c1cccnc1-c1ccc(-c2nnco2)cc1", "note": "[Compound (I), N-(3-methoxy-5-methylpyrazin-2-yl)-2-(4-[1,3,4-oxadiazol-2-yl]phenyl)pyridine-3-sulphonamide]", "values": [{"measurement": "hydrolytic degradation (in words)", "setting": "[1]; low and high pH", "result": "subject to hydrolytic degradation at low and high pH"}, {"measurement": "Compound (I) formyl hydrazide, % w/w (24 hours)", "setting": "[1]; pH 1.2, 37° C.", "result": 32.16, "unit": "% w/w"}, {"measurement": "Compound (I) hydrazide, % w/w (24 hours)", "setting": "[1]; pH 1.2, 37° C.", "result": 47.34, "unit": "% w/w"}, {"measurement": "Compound (I), % w/w (24 hours)", "setting": "[1]; pH 1.2, 37° C.", "result": 0.89, "unit": "% w/w"}, {"measurement": "Compound (I), % w/w (initial)", "setting": "[1]; pH 1.2, 37° C.", "result": "96.69/ % w/w"}, {"measurement": "Compound (I) formyl hydrazide, % w/w (initial)", "setting": "[1]; pH 1.2, 37° C.", "result": "1.58/ % w/w"}, {"measurement": "Compound (I) formyl hydrazide, % w/w (24 hours)", "setting": "[1]; pH 1.2, RT", "result": 59.83, "unit": "% w/w"}, {"measurement": "Compound (I) hydrazide, % w/w (24 hours)", "setting": "[1]; pH 1.2, RT", "result": 13.87, "unit": "% w/w"}, {"measurement": "Compound (I), % w/w (24 hours)", "setting": "[1]; pH 1.2, RT", "result": 23.04, "unit": "% w/w"}, {"measurement": "Compound (I), % w/w (initial)", "setting": "[1]; pH 1.2, RT", "result": "97.57/ % w/w"}, {"measurement": "Compound (I) formyl hydrazide, % w/w (initial)", "setting": "[1]; pH 1.2, RT", "result": "1.99/ % w/w"}, {"measurement": "Compound (I) formyl hydrazide, % w/w (24 hours)", "setting": "[1]; pH 3.0, 37° C.", "result": 3.09, "unit": "% w/w"}, {"measurement": "Compound (I), % w/w (24 hours)", "setting": "[1]; pH 3.0, 37° C.", "result": 96.56, "unit": "% w/w"}, {"measurement": "Compound (I), % w/w (initial)", "setting": "[1]; pH 3.0, 37° C.", "result": "99.43/ % w/w"}, {"measurement": "Compound (I) formyl hydrazide, % w/w (24 hours)", "setting": "[1]; pH 3.0, RT", "result": 1.66, "unit": "% w/w"}, {"measurement": "Compound (I) hydrazide, % w/w (24 hours)", "setting": "[1]; pH 3.0, RT", "result": "<0.05", "unit": "% w/w"}, {"measurement": "Compound (I), % w/w (24 hours)", "setting": "[1]; pH 3.0, RT", "result": 84.70, "unit": "% w/w"}, {"measurement": "Compound (I), % w/w (initial)", "setting": "[1]; pH 3.0, RT", "result": "99.45/ % w/w"}, {"measurement": "Compound (I) hydrazide, % w/w (24 hours)", "setting": "[1]; pH 7.2, 37° C.", "result": "<0.05", "unit": "% w/w"}, {"measurement": "Compound (I), % w/w (24 hours)", "setting": "[1]; pH 7.2, 37° C.", "result": 99.17, "unit": "% w/w"}, {"measurement": "Compound (I), % w/w (initial)", "setting": "[1]; pH 7.2, 37° C.", "result": "98.73/ % w/w"}, {"measurement": "Compound (I) hydrazide, % w/w (24 hours)", "setting": "[1]; pH 7.2, RT", "result": "<0.05", "unit": "% w/w"}, {"measurement": "Compound (I), % w/w (24 hours)", "setting": "[1]; pH 7.2, RT", "result": 99.45, "unit": "% w/w"}, {"measurement": "Compound (I), % w/w (initial)", "setting": "[1]; pH 7.2, RT", "result": "99.14/ % w/w"}, {"measurement": "Compound (I) formyl hydrazide, % w/w (24 hours)", "setting": "[1]; pH 11.0, 37° C.", "result": 4.16, "unit": "% w/w"}, {"measurement": "Compound (I) hydrazide, % w/w (24 hours)", "setting": "[1]; pH 11.0, 37° C.", "result": "<0.05", "unit": "% w/w"}, {"measurement": "Compound (I), % w/w (24 hours)", "setting": "[1]; pH 11.0, 37° C.", "result": 94.50, "unit": "% w/w"}, {"measurement": "Compound (I), % w/w (initial)", "setting": "[1]; pH 11.0, 37° C.", "result": "99.17/ % w/w"}, {"measurement": "Compound (I) formyl hydrazide, % w/w (24 hours)", "setting": "[1]; pH 11.0, RT", "result": 1.35, "unit": "% w/w"}, {"measurement": "Compound (I), % w/w (24 hours)", "setting": "[1]; pH 11.0, RT", "result": 94.21, "unit": "% w/w"}, {"measurement": "Compound (I), % w/w (initial)", "setting": "[1]; pH 11.0, RT", "result": "98.68/ % w/w"}, {"measurement": "Compound (I) formyl hydrazide, % w/w (initial)", "setting": "[1]; pH 11.0, RT", "result": "0.07/ % w/w"}, {"measurement": "Compound (I) formyl hydrazide, % w/w (24 hours)", "setting": "[2]; pH 1.2, 24 hours", "result": 16.35, "unit": "% w/w"}, {"measurement": "Compound (I) hydrazide, % w/w (24 hours)", "setting": "[2]; pH 1.2, 24 hours", "result": "ND/0.32 % w/w"}, {"measurement": "Compound (I), % w/w (24 hours)", "setting": "[2]; pH 1.2, 24 hours", "result": 82.33, "unit": "% w/w"}, {"measurement": "Compound (I) formyl hydrazide, % w/w (initial)", "setting": "[2]; pH 1.2, initial", "result": 1.39, "unit": "% w/w"}, {"measurement": "Compound (I), % w/w (initial)", "setting": "[2]; pH 1.2, initial", "result": 98.82, "unit": "% w/w"}, {"measurement": "Compound (I) formyl hydrazide, % w/w (24 hours)", "setting": "[2]; pH 3.0, 24 hours", "result": 0.30, "unit": "% w/w"}, {"measurement": "Compound (I), % w/w (24 hours)", "setting": "[2]; pH 3.0, 24 hours", "result": 95.76, "unit": "% w/w"}, {"measurement": "Compound (I) formyl hydrazide, % w/w (initial)", "setting": "[2]; pH 3.0, initial", "result": 0.05, "unit": "% w/w"}, {"measurement": "Compound (I), % w/w (initial)", "setting": "[2]; pH 3.0, initial", "result": 99.39, "unit": "% w/w"}, {"measurement": "Compound (I), % w/w (24 hours)", "setting": "[2]; pH 7.2, 24 hours", "result": 97.04, "unit": "% w/w"}, {"measurement": "Compound (I), % w/w (initial)", "setting": "[2]; pH 7.2, initial", "result": 98.78, "unit": "% w/w"}, {"measurement": "Compound (I) formyl hydrazide, % w/w (24 hours)", "setting": "[2]; pH 11.0, 24 hours", "result": 0.15, "unit": "% w/w"}, {"measurement": "Compound (I), % w/w (24 hours)", "setting": "[2]; pH 11.0, 24 hours", "result": 98.66, "unit": "% w/w"}, {"measurement": "Compound (I) formyl hydrazide, % w/w (initial)", "setting": "[2]; pH 11.0, initial", "result": "< 0.05", "unit": "% w/w"}, {"measurement": "Compound (I), % w/w (initial)", "setting": "[2]; pH 11.0, initial", "result": 99.91, "unit": "% w/w"}]}
